From US12459951B2, “Compounds that interact with RAS superfamily proteins for treatment of cancers, inflammatory diseases, rasopathies, and fibrotic disease” (SHY Therapeutics, LLC, priority 2022, dated 2025)
Structures can show the parent of a compound that is named as a salt.

Columns and labels:
[1] = target: T1, Rho-A (Homo sapiens, UniProt P61586); experiment: Ras GTP Binding Domain Inhibition Assay (Ras Superfamily Assay); details: read-out: Rho-A: % inh..
T1 construct: made in house
In short: (§1)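 Binding of 100 nM fluorescent GTP (Cy3 or Cy5, 45 min, room temperature) was read after washes from plate-captured His-tagged protein. Beforehand, compounds at 20 μM or in dilution series for IC50 sat 3 h on the protein in Tris buffer pH 7.4 or 7.0 with 1% DMSO, Sos GEF optionally added for the last hour.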

[2] = tested on: KRas Q61H mutant; experiment: as above; details: 20 μM compound; for KRas Q61H mutant + SOS: % inh.: with SOS; for KRas Q61H mutant: % inh.: without SOS
In short: as §1

[3] = tested on: KRas G12C mutant; experiment: as above; details: 20 μM compound; for KRas G12C mutant + SOS: % inh.: with SOS; for KRas G12C mutant: % inh.: without SOS
In short: as §1

[4] = tested on: MAPK p38 phosphorylation; experiment: MAPK p38 Activation Assay (western blot), Panc-1; format: cell-based, human; details: at 10 μM, Panc-1 pancreatic cancer cell line; starred symbols = activation
In short: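 Panc-1 cells (KRas G12D) were treated with compound for 6 h at 37 °C, at 10 μM or as serial dilutions for IC50, with 0.3% DMSO. Method 1 used overnight serum-starved cells (0.5% FBS) stimulated with 1.5 ng/ml EGF for 15 min; Method 2 used unstimulated cells in 10% FBS. Phospho-p38 (Thr180/Tyr182) was detected by western blot.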

T1 sequence (P61586 whole entry, the tested form may be a part): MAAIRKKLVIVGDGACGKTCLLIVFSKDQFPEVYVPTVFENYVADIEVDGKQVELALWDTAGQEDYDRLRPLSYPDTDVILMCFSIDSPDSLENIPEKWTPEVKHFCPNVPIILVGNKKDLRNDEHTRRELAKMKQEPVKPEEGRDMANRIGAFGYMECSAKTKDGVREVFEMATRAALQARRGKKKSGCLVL

SMILES	inhibition at 20 µM [1]	KRas Q61H mutant + SOS: % inh. [2]	KRas Q61H mutant: % inh. [2]	KRas G12C mutant + SOS: % inh. [3]	KRas G12C mutant: % inh. [3]	% inh of MAPK p38 in Panc-1 [4]
CO[C@H]1CC[C@@H](Nc2nc(-c3nccn3C)nn3cc(-c4ccn(C(C)C)n4)c(C)c23)C1 (racemic) [Compound 1, rac 6-(1-Isopropyl-1H-pyrazol-3-yl)-N-((1R,3S)-3-methoxycyclopentyl)-5-methyl-2-(1-methyl-1H-imidazol-2-yl)pyrrolo[2,1-f][1,2,4]triazin-4-amine]	0%	0 (0 = 0% inhibition)	0 (0 = 0% inhibition)	0 (0 = 0% inhibition)	0 (0 = 0% inhibition)	H* (H* ≥ 100% activation)
COCC1CCN(c2nc(-c3nccn3C)nn3cc(-c4ccn(C(C)C)n4)c(C)c23)C1 (racemic) [Compound 2, rac 6-(1-Isopropyl-1H-pyrazol-3-yl)-4-(3-(methoxymethyl)pyrrolidin-1-yl)-5-methyl-2-(1-methyl-1H-imidazol-2-yl)pyrrolo[2,1-f][1,2,4]triazine]	0%	0 (0 = 0% inhibition)	0 (0 = 0% inhibition)	0 (0 = 0% inhibition)	0 (0 = 0% inhibition)	H* (H* ≥ 100% activation)
COC[C@@H]1CC[C@@H]1CNc1nc(-c2nccn2C)nn2cc(-c3ccn(C(C)C)n3)c(C)c12 (racemic) [Compound 3, rac 6-(1-Isopropyl-1H-pyrazol-3-yl)-N-(((1S,2R)-2-(methoxymethyl)cyclobutyl)methyl)-5-methyl-2-(1-methyl-1H-imidazol-2-yl)pyrrolo[2,1-f][1,2,4]triazin-4-amine]	0%	0 (0 = 0% inhibition)	0 (0 = 0% inhibition)	0 (0 = 0% inhibition)	0 (0 = 0% inhibition)	H* (H* ≥ 100% activation)
COC1CCCN(c2nc(-c3nccn3C)nn3cc(-c4ccn(C(C)C)n4)c(C)c23)C1 (racemic) [Compound 4, rac 6-(1-Isopropyl-1H-pyrazol-3-yl)-5-methyl-2-(1-methyl-1H-imidazol-2-yl)-4-(3-(oxo-γ6-methyl)piperidin-1-yl)pyrrolo[2,1-f][1,2,4]triazine]	1 to 25%	0 (0 = 0% inhibition)	0 (0 = 0% inhibition)	0 (0 = 0% inhibition)	0 (0 = 0% inhibition)	G* (G* = 75-99% activation)
CO[C@H]1CC[C@@H](Nc2nc(-c3nccn3C)nn3cc(-c4ccn(C(C)C)n4)c(-c4ccccc4)c23)C1 (racemic) [Compound 18, rac 6-(1-Isopropyl-1H-pyrazol-3-yl)-N-((1R,3S)-3-methoxycyclopentyl)-2-(1-methyl-1H-imidazol-2-yl)-5-phenylpyrrolo[2,1-f][1,2,4]triazin-4-amine hydrochloride]	1 to 25%	A (A = 1-25% inhibition)	0 (0 = 0% inhibition)	0 (0 = 0% inhibition)	0 (0 = 0% inhibition)	H* (H* ≥ 100% activation)
COCC1CCN(c2nc(-c3nccn3C)nn3cc(-c4ccn(C(C)C)n4)c(-c4ccccc4)c23)C1.Cl (racemic) [Compound 19, rac 6-(1-Isopropyl-1H-pyrazol-3-yl)-4-(3-(methoxymethyl)pyrrolidin-1-yl)-2-(1-methyl-1H-imidazol-2-yl)-5-phenylpyrrolo[2,1-f][1,2,4]triazine hydrochloride salt]	1 to 25%	B (B = 26-49% inhibition)	0 (0 = 0% inhibition)	A (A = 1-25% inhibition)	0 (0 = 0% inhibition)	H* (H* ≥ 100% activation)
COC[C@@H]1CC[C@@H]1CNc1nc(-c2nccn2C)nn2cc(-c3ccn(C(C)C)n3)c(-c3ccccc3)c12 (racemic) [Compound 20, rac 6-(1-Isopropyl-1H-pyrazol-3-yl)-N-(((1S,2R)-2-(methoxymethyl)cyclobutyl)methyl)-2-(1-methyl-1H-imidazol-2-yl)-5-phenylpyrrolo[2,1-f][1,2,4]triazin-4-amine]	1 to 25%	0 (0 = 0% inhibition)	0 (0 = 0% inhibition)	0 (0 = 0% inhibition)	A (A = 1-25% inhibition)	H* (H* ≥ 100% activation)
COC1CCCN(c2nc(-c3nccn3C)nn3cc(-c4ccn(C(C)C)n4)c(-c4ccccc4)c23)C1 (racemic) [Compound 21, rac 6-(1-Isopropyl-1H-pyrazol-3-yl)-4-(3-methoxypiperidin-1-yl)-2-(1-methyl-1H-imidazol-2-yl)-5-phenylpyrrolo[2,1-f][1,2,4]triazine]	1 to 25%	A (A = 1-25% inhibition)	0 (0 = 0% inhibition)	0 (0 = 0% inhibition)	0 (0 = 0% inhibition)	H* (H* ≥ 100% activation)
COc1cccc(-c2cn3nc(-c4nccn4C)nc(N[C@@H]4CC[C@@H](OC)C4)c3c2-c2ccccc2)c1Cl.Cl (racemic) [Compound 34, rac 6-(2-Chloro-3-methoxyphenyl)-N-((1R,3R)-3-methoxycyclopentyl)-2-(1-methyl-1H-imidazol-2-yl)-5-phenylpyrrolo[2,1-f][1,2,4]triazin-4-amine hydrochloride]	1 to 25%	0 (0 = 0% inhibition)	0 (0 = 0% inhibition)	A (A = 1-25% inhibition)	0 (0 = 0% inhibition)	H (H = 100% inhibition)
COCCNc1nc(-c2nccn2C)nn2cc(-c3ccn(C(C)C)n3)c(C)c12 [Compound 5, 6-(1-Isopropyl-1H-pyrazol-3-yl)-N-(2-methoxyethyl)-5-methyl-2-(1-methyl-1H-imidazol-2-yl)pyrrolo[2,1-f][1,2,4]triazin-4-amine]	26 to 49%	–	–	–	–	–
COc1cccc(Nc2nc(-c3nccn3C)nn3cc(-c4ccn(C(C)C)n4)c(C)c23)n1 [Compound 7, 6-(1-Isopropyl-1H-pyrazol-3-yl)-N-(6-methoxypyridin-2-yl)-5-methyl-2-(1-methyl-1H-imidazol-2-yl)pyrrolo[2,1-f][1,2,4]triazin-4-amine]	0%	A (A = 1-25% inhibition)	B (B = 26-49% inhibition)	A (A = 1-25% inhibition)	0 (0 = 0% inhibition)	H* (H* ≥ 100% activation)
CC(C)n1ccc(-c2cn3nc(-c4nccn4C)nc(O)c3c2-c2ccccc2)n1 [Compound 17, 6-(1-Isopropyl-1H-pyrazol-3-yl)-2-(1-methyl-1H-imidazol-2-yl)-5-phenylpyrrolo[2,1-f][1,2,4]triazin-4-ol]	76 to 100%	C (C = 50-75% inhibition)	C (C = 50-75% inhibition)	C (C = 50-75% inhibition)	C (C = 50-75% inhibition)	0 (0 = 0% inhibition)
Cc1ccn2nc(-c3nccn3C)nc(N)c12.O=C(O)C(F)(F)F [Compound 37, 5-Methyl-2-(1-methyl-1H-imidazol-2-yl)pyrrolo[2,1-f][1,2,4]triazin-4-amine trifluoroacetic acid salt]	0%	0 (0 = 0% inhibition)	0 (0 = 0% inhibition)	C (C = 50-75% inhibition)	C (C = 50-75% inhibition)	–
Cn1ccnc1-c1nc(O)c2c(-c3ccccc3)ccn2n1 [Compound 39, 2-(1-Methyl-1H-imidazol-2-yl)-5-phenylpyrrolo[2,1-f][1,2,4]triazin-4-ol]	0%	0 (0 = 0% inhibition)	A (A = 1-25% inhibition)	A (A = 1-25% inhibition)	B (B = 26-49% inhibition)	–
Cc1c(-c2ccn(C(C)C)n2)cn2nc(-c3nccn3C)nc(Nc3noc(C4CC4)n3)c12 [Compound 75, 5-Cyclopropyl-N-(6-(1-isopropyl-1H-pyrazol-3-yl)-5-methyl-2-(1-methyl-1H-imidazol-2-yl)pyrrolo[2,1-f][1,2,4]triazin-4-yl)-1,2,4-oxadiazol-3-amine]	50 to 75%	B (B = 26-49% inhibition)	A (A = 1-25% inhibition)	A (A = 1-25% inhibition)	A (A = 1-25% inhibition)	–
COCCO[C@H]1C[C@H](Nc2nc(-c3nccn3C)nn3cc(-c4ccn(C(C)C)n4)c(C)c23)C1 [Compound 92, 6-(1-Isopropyl-1H-pyrazol-3-yl)-N-((1r,3r)-3-(2-methoxyethoxy)cyclobutyl)-5-methyl-2-(1-methyl-1H-imidazol-2-yl)pyrrolo[2,1-f][1,2,4]triazin-4-amine]	1 to 25%	A (A = 1-25% inhibition)	0 (0 = 0% inhibition)	0 (0 = 0% inhibition)	0 (0 = 0% inhibition)	–
